Results as given in US20260224716A1, “PTH ANALOGS FOR THE TREATMENT OF HYPOPARATHYROIDISM” (priority 2020, published 2026).
Blank lines part the entries; values can stand above or below the compound they belong to. *1 amine or outer side, *2 acyl side, *3 side chain or, on linkers, in order; H or OH if unused. Where a SMILES comes first, the peptide text is derived from it. Side-chain parts run from the residue outwards. The star is where a group is joined. C18 diacid = O=C(O)CCCCCCCCCCCCCCCCC(=O)*; γGlu = O=C(O)[C@H](CCC(=O)[*:2])N[*:1]; AEEA = NCCOCCOCC(=O)O

How the values were obtained:
[1] = Cleavage half-life / conversion of PTH prodrugs in PBS pH 7.4, 37° C. by LC-MS; format: physicochemical
Procedure: The resulting solution was incubated at 37° C. Aliquots were taken at designed time points and analyzed by LC-MS. […] Flow rate of 1 mL/min and a gradient of 10%-80% acetonitrile in water, with 0.1% trifluoroacetic acid over 10 min. […] The concentration of prodrug and drug were determined by their relative peak areas. The […] dissociation rate constant of the prodrug was determined by plotting the logarithm in the concentration of the prodrug at various time points.

PTHR1 = target: T1, PTHR1 (Homo sapiens, UniProt Q03431); test: cAMP Hunter Teriparatide Bioassay (CHO-K1 PTHR1 cells); format: cell-based
T1 construct: host or cells: CHO-K1
T1 sequence (Q03431 27-593): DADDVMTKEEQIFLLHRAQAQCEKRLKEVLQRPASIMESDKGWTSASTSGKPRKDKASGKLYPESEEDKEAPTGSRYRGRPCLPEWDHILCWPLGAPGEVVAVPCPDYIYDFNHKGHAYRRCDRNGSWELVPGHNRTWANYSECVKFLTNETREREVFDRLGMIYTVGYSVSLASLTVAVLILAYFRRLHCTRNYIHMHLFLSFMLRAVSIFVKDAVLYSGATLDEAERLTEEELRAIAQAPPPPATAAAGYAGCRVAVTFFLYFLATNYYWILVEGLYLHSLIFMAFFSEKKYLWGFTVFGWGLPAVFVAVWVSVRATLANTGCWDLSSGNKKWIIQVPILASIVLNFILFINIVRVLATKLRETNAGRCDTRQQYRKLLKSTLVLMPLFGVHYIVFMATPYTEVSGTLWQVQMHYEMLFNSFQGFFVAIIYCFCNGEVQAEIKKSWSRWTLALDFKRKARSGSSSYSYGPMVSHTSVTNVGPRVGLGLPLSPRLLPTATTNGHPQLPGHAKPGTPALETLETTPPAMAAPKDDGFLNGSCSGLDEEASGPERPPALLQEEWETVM

half-life ([1]; PBS buffer, dipeptide cleavage from PTH prodrug, PBS pH 7.4, 37° C., read-out: Half life (converted)): 67 h
Half life, fold slower than dK (vs SEQ ID NO: 46) ([1]; comparator SEQ ID NO: 46): 1.4 slower than dK
Half life, fold faster than Sar (vs SEQ ID NO: 52) ([1]; comparator SEQ ID NO: 52): 1.9 faster than Sar
Compound: CC[C@H](C)[C@H](NC(=O)[C@H](CCC(=O)O)NC(=O)[C@H](CO)NC(=O)[C@@H](NC(=O)[C@H](CO)NC(=O)CN(C(=O)[C@@H](N)CCCCNC(=O)CC[C@H](NC(=O)CCCCCCCCCCCCCCCCC(=O)O)C(=O)O)C(C)C)C(C)C)C(=O)N[C@@H](CCC(N)=O)C(=O)N[C@@H](CC(C)C)C(=O)N[C@@H](CCSC)C(=O)N[C@@H](Cc1c[nH]cn1)C(=O)N[C@@H](CC(N)=O)C(=O)N[C@@H](CC(C)C)C(=O)NCC(=O)N[C@@H](CCCCN)C(=O)N[C@@H](Cc1c[nH]cn1)C(=O)N[C@@H](CC(C)C)C(=O)N[C@@H](CC(N)=O)C(=O)N[C@@H](CO)C(=O)N[C@@H](CCSC)C(=O)N[C@@H](CCC(=O)O)C(=O)N[C@@H](CCCNC(=N)N)C(=O)N[C@H](C(=O)N[C@@H](CCC(=O)O)C(=O)N[C@@H](Cc1c[nH]c2ccccc12)C(=O)N[C@@H](CC(C)C)C(=O)N[C@@H](CCCNC(=N)N)C(=O)N[C@@H](CCCCN)C(=O)N[C@@H](CCCCN)C(=O)N[C@@H](CC(C)C)C(=O)N[C@@H](CCC(N)=O)C(=O)N[C@@H](CC(=O)O)C(=O)N[C@H](C(=O)N[C@@H](Cc1c[nH]cn1)C(=O)N[C@@H](CC(N)=O)C(=O)N[C@@H](Cc1ccccc1)C(=O)O)C(C)C)C(C)C [SEQ ID NO: 48]

S/B (PTHR1; FIG. 12): 1.7
Compound: SEQ ID NO: 109: PTH analog site-specifically modified by oxidation to methionine sulfoxide (SVSEIQLXHNLGKHLNSMERVEWLRKKLQDVHX; SITE 8 MISC_FEATURE - Xaa at position 8 is Met wherein the side chain is oxidized to form a sulfoxide; SITE 33 MISC_FEATURE - Xaa at position 33 is Lys wherein the side chain is acylated with COC16H32CO2H via a gamma Glu-(MINIPEG)2-gamma Glu spacer; listed as Homo sapiens)

Hillslope (PTHR1; FIG. 13B): 1.797
S/B (PTHR1; FIG. 13B): 8.9
Compound: CC[C@H](C)[C@H](NC(=O)[C@H](CCC(=O)O)NC(=O)[C@H](CO)NC(=O)[C@@H](NC(=O)[C@@H](N)CO)C(C)C)C(=O)N[C@@H](CCC(N)=O)C(=O)N[C@@H](CC(C)C)C(=O)N[C@@H](CCSC)C(=O)N[C@@H](Cc1c[nH]cn1)C(=O)N[C@@H](CC(N)=O)C(=O)N[C@@H](CC(C)C)C(=O)NCC(=O)N[C@@H](CCCCN)C(=O)N[C@@H](Cc1c[nH]cn1)C(=O)N[C@@H](CC(C)C)C(=O)N[C@@H](CC(N)=O)C(=O)N[C@@H](CO)C(=O)N[C@@H](CCSC)C(=O)N[C@@H](CCC(=O)O)C(=O)N[C@@H](CCCNC(=N)N)C(=O)N[C@H](C(=O)N[C@@H](CCC(=O)O)C(=O)N[C@@H](Cc1c[nH]c2ccccc12)C(=O)N[C@@H](CC(C)C)C(=O)N[C@@H](CCCNC(=N)N)C(=O)N[C@@H](CCCCN)C(=O)N[C@@H](CCCCN)C(=O)N[C@@H](CC(C)C)C(=O)N[C@@H](CCC(=O)O)C(=O)N[C@@H](CC(=O)O)C(=O)N[C@H](C(=O)N[C@@H](Cc1c[nH]cn1)C(=O)N[C@@H](CCCCNC(=O)CC[C@H](NC(=O)COCCOCCNC(=O)COCCOCCNC(=O)CC[C@H](NC(=O)CCCCCCCCCCCCCCCCC(=O)O)C(=O)O)C(=O)O)C(=O)O)C(C)C)C(C)C [SEQ ID NO: 124] (H-SVSEIQLMHNLGKHLNSMERVEWLRKKLEDVHK([γGlu-AEEA-AEEA-γGlu-C18 diacid])-OH; N-terminus and C-terminus assumed)

Hillslope (PTHR1; FIG. 13A): 1.648
S/B (PTHR1; FIG. 13A): 9.4
Compound: CC[C@H](C)[C@H](NC(=O)[C@H](CCC(=O)O)NC(=O)[C@H](CO)NC(=O)[C@@H](NC(=O)[C@@H](N)CO)C(C)C)C(=O)N[C@@H](CCC(=O)O)C(=O)N[C@@H](CC(C)C)C(=O)N[C@@H](CCSC)C(=O)N[C@@H](Cc1c[nH]cn1)C(=O)N[C@@H](CC(N)=O)C(=O)N[C@@H](CC(C)C)C(=O)NCC(=O)N[C@@H](CCCCN)C(=O)N[C@@H](Cc1c[nH]cn1)C(=O)N[C@@H](CC(C)C)C(=O)N[C@@H](CC(N)=O)C(=O)N[C@@H](CO)C(=O)N[C@@H](CCSC)C(=O)N[C@@H](CCC(=O)O)C(=O)N[C@@H](CCCNC(=N)N)C(=O)N[C@H](C(=O)N[C@@H](CCC(=O)O)C(=O)N[C@@H](Cc1c[nH]c2ccccc12)C(=O)N[C@@H](CC(C)C)C(=O)N[C@@H](CCCNC(=N)N)C(=O)N[C@@H](CCCCN)C(=O)N[C@@H](CCCCN)C(=O)N[C@@H](CC(C)C)C(=O)N[C@@H](CCC(N)=O)C(=O)N[C@@H](CC(=O)O)C(=O)N[C@H](C(=O)N[C@@H](Cc1c[nH]cn1)C(=O)N[C@@H](CCCCNC(=O)CC[C@H](NC(=O)COCCOCCNC(=O)COCCOCCNC(=O)CC[C@H](NC(=O)CCCCCCCCCCCCCCCCC(=O)O)C(=O)O)C(=O)O)C(=O)O)C(C)C)C(C)C [SEQ ID NO: 118] (H-SVSEIELMHNLGKHLNSMERVEWLRKKLQDVHK([γGlu-AEEA-AEEA-γGlu-C18 diacid])-OH; N-terminus and C-terminus assumed)

Hillslope (PTHR1; FIG. 13A): 2.804
S/B (PTHR1; FIG. 13A): 10
Compound: CC[C@H](C)[C@H](NC(=O)[C@H](CCC(=O)O)NC(=O)[C@H](CO)NC(=O)[C@@H](NC(=O)[C@@H](N)CO)C(C)C)C(=O)N[C@@H](CCC(N)=O)C(=O)N[C@@H](CC(C)C)C(=O)N[C@@H](CCSC)C(=O)N[C@@H](Cc1c[nH]cn1)C(=O)N[C@@H](CC(=O)O)C(=O)N[C@@H](CC(C)C)C(=O)NCC(=O)N[C@@H](CCCCN)C(=O)N[C@@H](Cc1c[nH]cn1)C(=O)N[C@@H](CC(C)C)C(=O)N[C@@H](CC(N)=O)C(=O)N[C@@H](CO)C(=O)N[C@@H](CCSC)C(=O)N[C@@H](CCC(=O)O)C(=O)N[C@@H](CCCNC(=N)N)C(=O)N[C@H](C(=O)N[C@@H](CCC(=O)O)C(=O)N[C@@H](Cc1c[nH]c2ccccc12)C(=O)N[C@@H](CC(C)C)C(=O)N[C@@H](CCCNC(=N)N)C(=O)N[C@@H](CCCCN)C(=O)N[C@@H](CCCCN)C(=O)N[C@@H](CC(C)C)C(=O)N[C@@H](CCC(N)=O)C(=O)N[C@@H](CC(=O)O)C(=O)N[C@H](C(=O)N[C@@H](Cc1c[nH]cn1)C(=O)N[C@@H](CCCCNC(=O)CC[C@H](NC(=O)COCCOCCNC(=O)COCCOCCNC(=O)CC[C@H](NC(=O)CCCCCCCCCCCCCCCCC(=O)O)C(=O)O)C(=O)O)C(=O)O)C(C)C)C(C)C [SEQ ID NO: 120] (H-SVSEIQLMHDLGKHLNSMERVEWLRKKLQDVHK([γGlu-AEEA-AEEA-γGlu-C18 diacid])-OH)

Hillslope (PTHR1; FIG. 12): 3.034
S/B (PTHR1; FIG. 12): 14.2
Compound: CC[C@H](C)[C@H](NC(=O)[C@H](CCC(=O)O)NC(=O)[C@H](CO)NC(=O)[C@@H](NC(=O)[C@@H](N)CO)C(C)C)C(=O)N[C@@H](CCC(N)=O)C(=O)N[C@@H](CC(C)C)C(=O)N[C@@H](CCSC)C(=O)N[C@@H](Cc1c[nH]cn1)C(=O)N[C@@H](CC(N)=O)C(=O)N[C@@H](CC(C)C)C(=O)NCC(=O)N[C@@H](CCCCN)C(=O)N[C@@H](Cc1c[nH]cn1)C(=O)N[C@@H](CC(C)C)C(=O)N[C@@H](CC(N)=O)C(=O)N[C@@H](CO)C(=O)N[C@@H](CC[S+](C)[O-])C(=O)N[C@@H](CCC(=O)O)C(=O)N[C@@H](CCCNC(=N)N)C(=O)N[C@H](C(=O)N[C@@H](CCC(=O)O)C(=O)N[C@@H](Cc1c[nH]c2ccccc12)C(=O)N[C@@H](CC(C)C)C(=O)N[C@@H](CCCNC(=N)N)C(=O)N[C@@H](CCCCN)C(=O)N[C@@H](CCCCN)C(=O)N[C@@H](CC(C)C)C(=O)N[C@@H](CCC(N)=O)C(=O)N[C@@H](CC(=O)O)C(=O)N[C@H](C(=O)N[C@@H](Cc1c[nH]cn1)C(=O)N[C@@H](CCCCNC(=O)CC[C@H](NC(=O)COCCOCCNC(=O)COCCOCCNC(=O)CC[C@H](NC(=O)CCCCCCCCCCCCCCCCC(=O)O)C(=O)O)C(=O)O)C(=O)O)C(C)C)C(C)C (some centres unmarked) [SEQ ID NO: 110]

Hillslope (PTHR1; FIG. 13B): 2.522
S/B (PTHR1; FIG. 13B): 8.2
Compound: CC[C@H](C)[C@H](NC(=O)[C@H](CCC(=O)O)NC(=O)[C@H](CO)NC(=O)[C@@H](NC(=O)[C@@H](N)CO)C(C)C)C(=O)N[C@@H](CCC(N)=O)C(=O)N[C@@H](CC(C)C)C(=O)N[C@@H](CCSC)C(=O)N[C@@H](Cc1c[nH]cn1)C(=O)N[C@@H](CC(N)=O)C(=O)N[C@@H](CC(C)C)C(=O)NCC(=O)N[C@@H](CCCCN)C(=O)N[C@@H](Cc1c[nH]cn1)C(=O)N[C@@H](CC(C)C)C(=O)N[C@@H](CC(=O)O)C(=O)N[C@@H](CO)C(=O)N[C@@H](CCSC)C(=O)N[C@@H](CCC(=O)O)C(=O)N[C@@H](CCCNC(=N)N)C(=O)N[C@H](C(=O)N[C@@H](CCC(=O)O)C(=O)N[C@@H](Cc1c[nH]c2ccccc12)C(=O)N[C@@H](CC(C)C)C(=O)N[C@@H](CCCNC(=N)N)C(=O)N[C@@H](CCCCN)C(=O)N[C@@H](CCCCN)C(=O)N[C@@H](CC(C)C)C(=O)N[C@@H](CCC(N)=O)C(=O)N[C@@H](CC(=O)O)C(=O)N[C@H](C(=O)N[C@@H](Cc1c[nH]cn1)C(=O)N[C@@H](CCCCNC(=O)CC[C@H](NC(=O)COCCOCCNC(=O)COCCOCCNC(=O)CC[C@H](NC(=O)CCCCCCCCCCCCCCCCC(=O)O)C(=O)O)C(=O)O)C(=O)O)C(C)C)C(C)C [SEQ ID NO: 122] (H-SVSEIQLMHNLGKHLDSMERVEWLRKKLQDVHK([γGlu-AEEA-AEEA-γGlu-C18 diacid])-OH; N-terminus and C-terminus assumed)
